Test results reported in patent US8932558B2, “Multi-subunit biological complexes for treatment of plaque-associated diseases” (Plaxgen Inc, priority 2007, dated 2015).
Counter-ions that a name gives are not always drawn.

Columns and labels:
[1] = biological target: iron-loaded abeta42 templates (Homo sapiens, UniProt P05067); test: Binding of proteins to iron-loaded abeta42 templates; settings: SDS-PAGE
Excerpt: FIG. 46 illustrates an example involving the identification of proteins that bind to iron-loaded abeta42 templates. The iron-loaded abeta42 templates are combined with known and unknown cell extracts (CE) and subjected to CPA, as described herein. To determine which proteins successfully bind the templates, the final template complexes are suspended in denaturing sample buffer, boiled, and loaded into SDS-PAGE gel. The gels are then stained with coomassie blue or silver stain in order to visualize the binding proteins. […] In the negative control, no significant binding is observed when the proteins are incubated in the absence of the templates.
In experiments such as these, known and unknown cell extract proteins that are used for the complex formation with the aggregates are diluted in PBS to a 1 mg/ml concentration and stored at −70° C. as 50 μl aliquots. These samples are thawed on ice and centrifuged (13000 rpm, 15 min, 4° C.) to remove any precipitation. The supernatant containing soluble proteins is used to form complexes with the aggregates. Various proteins are screened against the iron loaded abeta42 aggregates for examining their binding. Binding experiments are performed in PBS (50 μl, pH 7.3) containing 6.0 μg of iron loaded abeta 42 aggregates and 1.0 μg of each protein. The mixture is incubated at 37° C. for 1 hr. After that, the samples are centrifuged (9000 rpm, 9 min, 15° C.) and the complexes are washed five times with 100 μl PBST (PBS containing 0.05% of Tween 20). After each wash, the supernatant is discarded and the complexes are transferred to a new tube to avoid any carry-over of the proteins. The final complexes are suspended in 20 μl of PBS to which 5.0 μl of denaturing sample solublising buffer (Bio Rad, CA, USA) is added. After boiling the samples for 10 min they are loaded into 4-20% SDS-PAGE (Cambrex Bio Sci, ME, USA). The proteins in the gels are detected using coomassie blue or silver stain (Owl silver stain, Pierce, Ill., USA). All the binding and the CPA experiments are carried out in low protein bind 1.7 ml centrifuge tubes (Effentorf, Calif.).

CP aggregates [2] = test: Binding of proteins with calcium containing aggregates; settings: 2 μg protein, 37° C., 1 hr
Experimental: (§1) The Proteins used for binding with the aggregates are diluted first in the PBS to make 1 mg/ml concentration and then stored at −20° C. as 50 μl aliquots. These samples are then thawed on ice and centrifuged (10,000 rpm, 10 min, 4° C.) to remove any precipitation and the supernatant containing only the soluble proteins are used for binding studies. To start with, for identification of proteins binding with calcium containing aggregates, a number of proteins are screened individually with the aggregates. Binding experiment is performed in 100 μl reaction (50 μl PBS buffer and 50 μl of individual aggregates) containing 2 μg of protein and the mixtures are incubated at 37° C. for 1 hr. For control experiments, protein (2 μg) is mixed in 100 μl PBS without aggregates. After the binding, the mixture is centrifuged (2500 rpm, 2 min, 20° C.) and the pellet is washed four times with 200 μl PBST (Tween 20, 0.05%). After each wash the supernatant is discarded and the complexes are transferred to a new microfuge tube to avoid any carry-over of the proteins. The calcium containing aggregates-protein complexes are suspended in 20 μl of PBS to which 5 μl of EDTA (25 mM final concentration) is added for solubilization of the complexes. Finally, the solublized samples are used for protein quantitation using protein estimation kit (Pierce, Ill.) and the data are used in the Microsoft Excel program to generate Graph 1 (FIG. 4). All the binding experiments and subsequent CPA experiments are carried out in low protein bind 1.7 ml centrifuge tubes (Effentorf, Calif.). For all the following binding experiments the same buffer, centrifugation and washing conditions are used.

CP aggregates formation = test: Screen of known drugs for prevention of CP aggregates formation; settings: for CP aggregates formation, dose dependence: sodium phosphate dibasic and calcium chloride 4 mM each
[3] = tested on: plaque induced chronic inflammation; test: Drug treatment of mice with plaque induced chronic inflammation; settings: 5-10 mg/kg per day orally, 8 weeks
[4] = tested on: plaque accumulation in the heart tissues; test: Drug treatment of asymptomatic induced atherosclerotic mice, histochemical analysis of heart tissues; settings: 5-10 mg/kg per day orally, 8 weeks
[5] = tested on: thrombus, generated from the CP-Chl aggregates; test: Effect of PGN27 on dissolution of thrombus; settings: 2 mM, 1 hr
CP aggregates [6] = test: Binding of PGN27 to CP aggregates and cyclic plaque assembly (CPA)
[7] = tested on: CO, lipid and cholesterol aggregates formations; test: Effect of PGN27 on CO, lipid and cholesterol aggregates formation
[8] = tested on: CP, CC, CO, and CaPPD aggregates; test: Binding of proteins with calcium containing aggregates (any of the four); settings: 2 μg protein, 37° C., 1 hr
Experimental: as §1, with “The calcium containing aggregates-protein complexes are suspended in 20 μl of PBS to which 5 μl of EDTA (25 mM final concentration) is added for solubilization of the complexes.” left out, “All the binding experiments and subsequent CPA experiments are carried out in low protein bind 1.7 ml centrifuge tubes (Effentorf, Calif.). For all the following binding experiments the same buffer, centrifugation and washing conditions are used.” left out

[9] = tested on: iron loaded abeta42 aggregates mixed with CE proteins; test: Proteolysis of amyloid plaque complexes assembled on iron loaded abeta42 aggregates; assay type: biochemical; settings: 20 ng protease, 37° C., 1 hr
Experimental: This example illustrates the use of the invention to evaluate the proteolytic degradation of the amyloid complexes. For example, iron loaded abeta42 aggregates are mixed with CE proteins, and the resulting template complexes are treated with five different serine proteases. More specifically, nine independent reactions are carried out with each containing 5.0 μg of the iron-loaded aggregates of abeta42 and 6.0 μg of the CE proteins. After incubation and washing, the complexes are suspended in 50 μl of PBS. The nine complexes are sub-divided into two groups, with six individual complexes comprising Group I and three complexes comprising Group II. In order to interrogate the role of the plasminogen (PLG) activation system, which is implicated in the catabolism of amyloid peptides as well as the pathobiology of amyloid diseases (Melchor J P et al, 2003; Van Nostrand W E et al, 1999; Kranenburg O, 2005), the Group II complexes are subjected to another cycle of binding with both PLG (0.5 μg) and BSA (0.5 μg) proteins. After binding and washing, the PLG and BSA bound plaques complexes are suspended in 50 μl of PBS.
For proteolysis analysis, five of the six Group I template complexes are incubated with 20 ng of each protease (plasnin, chymotrypsin, trypsin, proteinase K and urokinase). The remaining complex is used as a control without protease treatment. Among three complexes of the Group II containing PLG attached to them, one is treated with u-PA (20 ng), a second is treated with t-PA (20 ng) and the third complex is used as a control without protease treatment. All these plaque complexes are incubated at 37° C. for 1 hr and after every 15 min, the tubes are gently tapped in order to encourage mixing. After washing, both the proteases-treated and control plaque complexes are suspended in 20 μl PBS. The complexes are boiled for 10 min with sample solubilizing buffer and loaded in to 4-20% gradient SDS-PAGE. Further, the gels are processed for silver staining and the results are documented for further analysis.

[10] = biological target: T1, PLG attached to complexes of iron loaded abeta42 aggregates (Homo sapiens, UniProt P00747); test: Activation of complex-bound PLG by u-PA or t-PA; assay type: biochemical
T1 construct: Lys-Plasminogen (PLG); purchased Enzyme Research Laboratories (IN, USA)
Experimental: This example illustrates a method of evaluating the conformation and functionality of PLG attached to template complexes. Three groups of experiments are carried out to add the PLG at different layers of plaque complex formation. Group I includes three independent reactions containing both the PLG and BSA (0.5 μg each) that are added in the first cycle of the complex formation with the templates (5.0 μg). Group II includes three reactions to which both the PLG and BSA (0.5 μg each) are added in the first cycle of complex formation followed by another cycle of binding of the resulting complexes with the CE proteins (6.0 μg). Similarly, Group III includes three reactions each containing 5.0 μg of CE proteins and 5.0 μg of the abeta42 templates for complex formation in the first cycle of binding. The resulting complexes are subjected to another cycle of binding with both the PLG and BSA (0.5 μg each). […] After treating with the PLG activators, all the complexes are washed and finally suspended in 20 μl of PBS. After boiling the complexes for 10 min in sample solublizing buffer they are loaded into 4-20% gradient SDS-PAGE. Further, the gel is processed for silver staining and the results are documented for analysis. […]

[11] = tested on: thrombus generated from the in vitro assembled plaques complexes; test: Thrombolytic assay with PLG cascade proteins; assay type: biochemical; settings: thrombus from cholesterol, lipids, CP and CO complexes
Experimental: To examine this, both PLG and PLG activators are used to target these clots. Thrombolytic assays are carried out in 100 μl reaction containing thrombus, generated from 100 μl of aggregates or plaque complexes, 1 μg of PLG and 20 ng of u-PA or t-PA in PBS buffer. The reactions are incubated at 37° C. for 1 hr and after every 15 min the tubes are gently tapped to mix the contents. After 1 hr incubation, 1 ml of PBS is added to all the tubes and the samples are visually examined for dissolution of the thrombus.
The thrombus generated from the cholesterol, lipids, CP, and CO complexes are incubated separately with PLG, u-PA and t-PA to examine whether these proteins individually could dissolve the clots.
This could be due to the inhibition of u-PA by the PAI-1 thereby preventing the activation of the PLG. In the next experiment, the aggregates of CP-Cholesterol, CP-Lipids, CP-Cholesterol-Lipids, Cholesterol-Lipids, CO-Cholesterol and CO-Lipids are individually used in CPA for five cycles to assemble complexes followed by their thrombus generation.
The example depicted in FIG. 18 illustrates the dissolution of thrombi by PLG and u-PA. […] Both the clots and the dissolved complexes are further examined under microscope to confirm the visual examination (FIGS. 18a, b, c and d). The thrombus formed in the urine is also dissolved by the action of PLG and u-PA.

CO aggregates = test: Binding of proteins with calcium containing aggregates; settings: 2 μg protein, 37° C., 1 hr
Experimental: as §1

iron-loaded abeta42 templates, sequence (P05067 672-713 limits assumed): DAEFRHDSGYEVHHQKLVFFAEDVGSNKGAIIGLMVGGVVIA
T1 sequence (P00747 97-810, one chain of several): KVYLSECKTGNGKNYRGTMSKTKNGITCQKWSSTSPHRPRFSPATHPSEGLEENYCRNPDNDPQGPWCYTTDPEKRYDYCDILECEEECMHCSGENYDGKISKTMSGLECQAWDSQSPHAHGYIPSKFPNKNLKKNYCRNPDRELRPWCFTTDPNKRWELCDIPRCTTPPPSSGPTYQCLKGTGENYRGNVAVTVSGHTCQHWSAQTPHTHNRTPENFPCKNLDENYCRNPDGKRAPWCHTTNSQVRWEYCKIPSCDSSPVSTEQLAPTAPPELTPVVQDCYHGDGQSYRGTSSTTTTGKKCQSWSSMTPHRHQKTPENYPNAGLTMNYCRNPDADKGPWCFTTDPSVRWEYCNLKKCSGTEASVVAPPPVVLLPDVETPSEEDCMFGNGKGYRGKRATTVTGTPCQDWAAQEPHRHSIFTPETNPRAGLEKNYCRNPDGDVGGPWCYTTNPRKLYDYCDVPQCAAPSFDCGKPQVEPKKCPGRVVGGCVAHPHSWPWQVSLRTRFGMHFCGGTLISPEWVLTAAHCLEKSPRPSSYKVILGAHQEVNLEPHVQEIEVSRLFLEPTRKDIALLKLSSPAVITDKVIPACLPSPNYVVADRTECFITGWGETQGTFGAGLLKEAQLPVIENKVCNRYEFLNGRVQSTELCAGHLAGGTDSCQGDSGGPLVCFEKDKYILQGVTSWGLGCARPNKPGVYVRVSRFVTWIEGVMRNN

Question: With CB: complement factor B as the compound, how does the “Binding with iron-loaded abeta42 templates” value [1] read?
Answer: bind with the templates

Question: ProS: protein S was tested. Which “Binding with the CP aggregates” value (CP aggregates [2]) did it give?
Answer: detectable binding

Question: And the “Binding with iron-loaded abeta42 templates” value [1]?
Answer: bind with the templates

Question: Which results are given for `CN(C)[C@@H]1C(O)=C(C(N)=O)C(=O)[C@@]2(O)C(O)=C3C(=O)c4c(O)cccc4[C@@](C)(O)[C@H]3C[C@@H]12` [PGN27, tetracycline hydrochloride]?
Answer: CP aggregates formation in the presence of antibiotic (CP aggregates formation; 5 mM drug, 5 mM sodium phosphate dibasic, 5 mM calcium chloride, 30 min 37° C.): prevented the CP aggregates formation; CP aggregates formation, dose dependence (CP aggregates formation; 0.5 and 0.25 mM drug): CP aggregates formation occurred; CP aggregates formation, dose dependence (CP aggregates formation; 4, 2 and 1 mM drug): did not show the CP aggregates formation; Symptoms of plaque inflammation compared to the control animal [3]: reduced symptoms of plaque inflammation; Plaque accumulation in heart tissues, histochemical analysis [4]: reduced plaque accumulation; Dissolution of the thrombus [5]: no dissolution of the thrombus; Binding with the CP aggregates (colorless to yellow) (CP aggregates [6]; 2 mM, 37° C., 30 min): specific and stable binding; Effect on binding of proteins with the CP aggregates in CPA (CP aggregates [6]; CP-PGN27 complexes, four cycles of CPA, gel analysis): did not compete or affect binding of the proteins; Inhibition of CO, lipid and cholesterol aggregates formations [7]: did not inhibit

Question: For HIN: human insulin, which “Binding with iron-loaded abeta42 templates” value [1] is on record?
Answer: no detectable binding

Question: What about the “Binding with any of the CP, CC, CO, CaPPD aggregates” value [8] of the same compound?
Answer: no detectable binding

Question: How did the “Binding with iron-loaded abeta42 templates” value [1] turn out when CD: complement factor D was run?
Answer: bind with the templates

Question: With “rhHGF: recombinant human hepatocyte growth factor” as the compound, how does the “Binding with iron-loaded abeta42 templates” value [1] read?
Answer: bind with the templates

Question: How did the “Degradation of proteins bound to the aggregates” value [9] turn out when trypsin was run?
Answer: degraded

Question: Which “Binding with the CP aggregates” value (CP aggregates [2]) does the source give for C3: complement factor 3 here?
Answer: detectable binding

Question: For PLG: plasminogen, which “Binding with the CP aggregates” value (CP aggregates [2]) is on record?
Answer: detectable binding

Question: And the “Activation of PLG bound in first cycle compared to second cycle, increasing u-PA” value ([10]; 25, 50, 100 ng u-PA)?
Answer: exhibits resistance even when incubated with increased concentrations of the u-PA

Question: And the “Activation of PLG bound in first cycle compared to second cycle” value ([10]; u-PA (20 ng) or t-PA)?
Answer: detectable level of resistance to activation

Question: What about the “Dissolution of thrombus, protein incubated separately” value [11] of the same compound?
Answer: did not show any dissolution

Question: And the “Binding with iron-loaded abeta42 templates” value [1]?
Answer: bind with the templates

Question: How did the “Binding with the CO aggregates” value (CO aggregates) turn out when FIX: coagulation factor IX was run?
Answer: detected for binding

Question: And the “Binding with the CP aggregates” value (CP aggregates [2])?
Answer: detectable binding

Question: What about the “Binding with iron-loaded abeta42 templates” value [1] of the same compound?
Answer: bind with the templates

Question: With chymotrypsin as the compound, how does the “Degradation of proteins bound to the aggregates” value [9] read?
Answer: degraded
